Laboratory results from patent publication US7601756B2, “Method of treatment for irritable bowel syndrome” (Snowden Pharmaceuticals, LLC, priority 2003, dated 2009).

How the values were obtained:
[1] = test system: HDL (high density lipoprotein) level; assay: HDL level of Patient 1 after treatment; type: in vivo, human; conditions: Gemfibrozil 600 mg twice a day, later testing
Description: Patient 1 suffered from a variety of conditions including diabetes, post traumatic attention deficit disorder, and irritable bowel syndrome. […] However, upon resuming the Gemfibrozil treatment, the levels were again reduced.

[2] = test system: irritable bowel syndrome (IBS) symptoms; assay: Patient subjective evaluation of IBS symptoms before and after treatment (case studies); type: in vivo, human
Description: Each patient subjectively evaluated his or her symptoms both before and after treatment on a scale from 0 to 10 with 0 representing the absence of symptoms and 10 indicating the most severe symptoms. […] Patient 2 also was treated with Gemfibrozil 600 mg twice daily. […] Patient 3 was originally treated with Gemfibrozil 600 mg twice daily.

[3] = Patient 1, Gemfibrozil 600 mg twice a day, within a day, scale 0 to 10, before 8
[4] = Patient 2, Gemfibrozil 600 mg twice daily, after 1.5 days, scale 0 to 10, before 0
[5] = Patient 3, Gemfibrozil 600 mg twice daily, after 2 days, scale 0 to 10, before 7

Compound: Cc1ccc(C)c(OCCCC(C)(C)C(=O)O)c1 [Gemfibrozil, 5-(2,5-dimethylphenoxy)-2,2-dimethylpentanoic acid]
- HDL level after treatment [1]: increased
- Change of evaluation of IBS symptoms ([2]; Patient 1, Gemfibrozil 600 mg twice a day, within a day): significant improvement
- Patient evaluation of symptoms: Gas (After) ([2]; Patient 1, Gemfibrozil 600 mg twice a day, within a day, scale 0 to 10 (0 absence, 10 most severe), before 4): 1
- Patient evaluation of symptoms: Constipation (After) ([2]; Patient 1, Gemfibrozil 600 mg twice a day, within a day, scale 0 to 10, before 0): 0
- Patient evaluation of symptoms: Overall (After) ([2]; Patient 1, Gemfibrozil 600 mg twice a day, within a day, scale 0 to 10, before 6.5): 1
- Patient evaluation of symptoms: Cramps/Pain (After) [2, 3]: 1
- Patient evaluation of symptoms: Mucus (After) [2, 3]: 2
- Patient evaluation of symptoms: Diarrhea (After) ([2]; Patient 1, Gemfibrozil 600 mg twice a day, within a day, scale 0 to 10, before 9): 1
- IBS symptom levels upon resuming treatment ([2]; Patient 1, Gemfibrozil treatment resumed): again reduced
- IBS symptoms on discontinued use ([2]; Patient 1, use of Gemfibrozil discontinued): returned to the before levels
- Side effect experienced under treatment ([2]; Patient 2, Gemfibrozil 600 mg twice daily): occasional constipation
- IBS symptoms after treatment ([2]; Patient 2, Gemfibrozil 600 mg twice daily, after 1.5 days of treatment): virtually disappeared
- Patient evaluation of symptoms: Gas (After) ([2]; Patient 2, Gemfibrozil 600 mg twice daily, after 1.5 days of treatment, scale 0 to 10, before 4.5): 0
- Patient evaluation of symptoms: Constipation (After) [2, 4]: 3
- Patient evaluation of symptoms: Mucus (After) [2, 4]: 0
- Patient evaluation of symptoms: Cramps/Pain (After) ([2]; Patient 2, Gemfibrozil 600 mg twice daily, after 1.5 days, scale 0 to 10, before 5): 0
- Patient evaluation of symptoms: Diarrhea (After) ([2]; Patient 2, Gemfibrozil 600 mg twice daily, after 1.5 days, scale 0 to 10, before 8.5): 0
- Patient evaluation of symptoms: Overall (After) ([2]; Patient 2, Gemfibrozil 600 mg twice daily, after 1.5 days, scale 0 to 10, before 9): 1
- IBS symptoms after treatment ([2]; Patient 3, Gemfibrozil 600 mg twice daily, after 2 days of treatment): greatly improved
- Patient evaluation of symptoms: Gas (After) ([2]; Patient 3, Gemfibrozil 600 mg twice daily, after 2 days of treatment, scale 0 to 10, before 3): 1
- Patient evaluation of symptoms: Constipation (After) ([2]; Patient 3, Gemfibrozil 600 mg twice daily, after 2 days, scale 0 to 10, before 0): 0
- Patient evaluation of symptoms: Mucus (After) ([2]; Patient 3, Gemfibrozil 600 mg twice daily, after 2 days, scale 0 to 10, before 3): 0
- Patient evaluation of symptoms: Cramps/Pain (After) [2, 5]: 2
- Patient evaluation of symptoms: Overall (After) [2, 5]: 2
- Patient evaluation of symptoms: Diarrhea (After) ([2]; Patient 3, Gemfibrozil 600 mg twice daily, after 2 days, scale 0 to 10, before 9): 3

Compound: CC(C)OC(=O)C(C)(C)Oc1ccc(C(=O)c2ccc(Cl)cc2)cc1 [micronized fenofibrate, 2-(4-(4-chlorobenzoyl)phenoxy)-2-methyl-propanoic acid 1-methyl ethyl ester]
- Patient evaluation of symptoms in all categories ([2]; Patient 3, micronized fenofibrate 200 mg daily, after discontinuing Gemfibrozil, scale 0 to 10): 0
